For one data set, the system named is LPS-induced sepsis. Kind of data set: Therapeutic efficacy in LPS-induced endotoxemia (sepsis) model. Type of data set: in vivo, C57BL/6 mice. The following applies: free PMB at the respective LD50 (20 mg/kg for IP and 5 mg/kg for IV). The protocol: The therapeutic efficacy of D-TZP was tested in a mouse model of sepsis. C57BL/6 male mice were given IP injection of 20 mg/kg LPS, which causes systemic inflammation similar to initial clinical features of sepsis. TZP or D-TZP was administered in three regimens:
Therapeutic efficacy in LPS-induced endotoxemia model. 6-8 week-old C57BL/6 mice (male and female) were challenged with an intraperitoneal injection of 20 mg/kg LPS solution (5% dextrose) via 20G catheter (Exel International Disposable Safelet I.V.), which causes systemic inflammation similar to initial clinical features of sepsis^17,19. […] A vehicle control (5% dextrose) or an equivalent dose of free PMB were given in the same manner for comparison. […] Buprenorphine (0.05 mg/kg) was injected subcutaneously shortly after the treatment and every 2-12 h as the signs of discomfort were observed. The body temperature was measured with a Pocket Infrared Thermometer (Braintree Scientific, Inc., Braintree, MA) at each observation, and the body weight was recorded at each observation. When an animal was found dead at the time of observation, the time of death was estimated to be in the halfway of the last two observation times. When animals were lethargic and cold at the time of observation, the animals were euthanized by CO2 asphyxiation. The mouse survival was monitored for 2 weeks.

For data set [1], the system named is LPS-induced NF-kB/AP-1 activation in THP1-XBlue-MD2-CD14 cells. Kind of data set: In vitro anti-LPS activity, SEAP reporter assay, LPS added simultaneously with treatment. The format is cell-based, human. The following applies: 10 ng/mL LPS, free PMB at 150 μg/mL. The procedure:
To investigate if D-TZP can neutralize LPS, a reporter cell line responding to LPS was incubated with LPS and free PMB or D-TZP's (with different amounts of PMB). THP1-XBlue-MD2-CD14, derived from the human monocytic THP-1 cell line, overexpresses MD2 and CD14 to amplify the response to TLR4 agonist LPS. Color change of the Quanti-Blue reagent (NF-kB/AP-1-inducible secreted embryonic alkaline phosphatase (SEAP) reporter protein) reflects NF-kB/AP-1 activation due to LPS. LPS-induced SEAP production was measured at 620 nm. The reporter cells with 10 ng/mL of LPS expressed a high level of SEAP as compared to non-challenged cells. […] A supernatant was obtained from each mixture to separate unbound LPS and added to THP1-XBlue-MD2-CD14 cells.
In vitro anti-LPS activity. Five microliters of LPS ([…]) was mixed with 15 μL of free PMB, D-TZP, or TZP at different concentrations in a flat-bottom 96-well plate. THP1-XBlue-MD2-CD14 cell suspension (10^5 cells in 180 μL) was then added to the mixtures. After 24 h incubation, cells were centrifugated at 233 rcf for 5 min. Twenty microliters of the cell medium was mixed with the Quanti-Blue reagent. After 2 h incubation, the color was measured at 620 nm by a Spectra Max M3 microplate reader (Molecular Devices, Sunnyvale, CA). […] The medium was analyzed in the same manner as above.
(In a reporter assay the amount or activity of a reporter protein is the signal.)

The test system of another data set is C57BL/6 male mice. In words: In vivo safety. The following applies: dose exceeding its LD50. The protocol:
D-TZP was intraperitoneally (IP) or intravenously (IV) injected to C57BL/6 male mice at doses equivalent to as high as 40 mg/kg PMB and 10 mg/kg PMB, respectively, much greater than the known IP and IV LD50 values of free PMB (20 mg/kg for IP and 5 mg/kg for IV). […] Higher doses have not been tested; therefore, the maximum tolerated dose of D-TZP in each route could not be defined. […] The increased tolerated dose is consistent with the reduced in vitro toxicity of D-TZP.
In vivo safety. 6-10 week-old C57BL/6 male mice were used to evaluate the safety of D-TZP and TZP in comparison with free PMB. The treatment was administered by IP (2.5-40 mg/kg) or IV (3-10 mg/kg) injection. The body weight changes were monitored daily up to 1 week. For blood chemistry and histology analysis, blood and major organs were collected at 12 h post IV injection of vehicle (5% dextrose), free PMB, D-TZP, or TZP (all equivalent to 10 mg/kg PMB). Animals were sacrificed by CO2 asphyxiation. Blood was obtained by cardiac puncture. Major organs were fixed in 10% formalin, embedded in paraffin, sectioned, and stained with hematoxylin and eosin for histological evaluation. The samples were imaged with a Nikon 90i upright microscope. To evaluate the safety of multiple intravenous injections, 5 mg/kg PMB or 10 mg/kg PMB equivalent D-TZP was given every 2 days up to 4 times total with body weight monitoring over 2 weeks.

Data set [2] relates to cecal ligation and puncture (CLP) model. Kind of data set: Therapeutic efficacy in cecal ligation and puncture (CLP) polymicrobial sepsis model. Type of data set: in vivo, C57BL/6 mice. The settings on record: IV 2 h post-CLP and every 2 days, max three times; D-TZP and TZP 10 mg/kg PMB eq., free PMB 5 mg/kg. The procedure: The efficacy of systemic […] was further tested in cecal ligation and puncture (CLP) model, which induces systemic inflammation by polymicrobial infection and thus simulates a clinically relevant septic state (Toscano, M. G. et al., JoVE, e2860 (2011)). D-TZP and TZP was administered IV at 10 mg/kg PMB eq. 2 h post-CLP and every subsequent 2 days a maximum total of three times. Free PMB was given at 5 mg/kg IV in the same schedule as D-TZP.
Therapeutic efficacy in polymicrobial sepsis model by cecal ligation and puncture (CLP). The efficacy of D-TZP and TZP was evaluated in a cecal ligation and puncture (CLP) model, the gold standard of polymicrobial sepsis model. The abdomen of 6 week-old C57BL/6 male was cleaned with a hair-removal cream (Nair, Church & Dwight Co., Inc). The mice were anesthetized by 2.5% isofluorane. Betadine 0.5% solution and 70% isopropyl alcohol swap were alternately applied three times to disinfect the shaved abdomen. Midline laparotomy was performed under an aseptic condition to exteriorize the cecum. The cecum was ligated below the ileocecal valve with a 5-0 suture (perma-hand silk, Ethicon) and perforated twice with 20 G needle on the same side of the cecum to release feces into the peritoneal cavity. After perforation, the intestines were returned to abdominal cavity. […] Animals were monitored as described in the endotoxemia model.

As for polymyxin B [PMB], in the data set on LPS-induced sepsis, the “protection of challenged animals” value is reported as “did not protect the challenged animals”. In addition, in data set [1], the “LPS-induced SEAP production” value was “reduced the SEAP production”. In addition, in the data set with C57BL/6 male mice, the mortality entry was “resulted in mortality”. In data set [2], the survival is listed as 33%.

The values are drawn from patent US11865158B2, “Process and composition matter of nanoparticle formulation for systemic treatment of sepsis” (PURDUE RESEARCH FOUNDATION, priority 2019, dated 2024).
